In brackets after ≈: the same amount, converted by molar mass.
How the values were obtained:
MRSA Pyk = target: T1, MRSA Pyk (Staphylococcus aureus, UniProt Q6GG09); experiment: MRSA pyruvate kinase (PK) activity, continuous LDH-coupled assay; assay type: biochemical, methicillin resistant S. aureus (MRSA252)
T1 construct: made in house; host or cells: E. coli BL-21 (DE3)
Method in brief: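 Activity monitored continuously as absorbance change at 340 nm from NADH oxidation via coupled lactate dehydrogenase, reactions started with 15 nM recombinant His-tagged PK (MRSA or human isoform) and run at 30° C for up to 5 min. Ki derived by varying inhibitor (0-400 nM) and PEP (2-20 mM) at 2 mM ADP; IC50 by four-parameter fitting.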

[1] = test system: A. baumannii (ATCC 19606); experiment: In vitro susceptibility, broth microdilution (MIC); assay type: cell-based; settings: Acinetobacter baumannii, ATCC19606; A. baumannii ATCC 19606 (values without asterisk); read-out: Antimicrobial activity (MIC) A. baumannii
Method in brief: (§1)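 MIC determined by CLSI 2-fold broth microdilution in cation-adjusted Mueller–Hinton broth at ~2.5×10^5 CFU/ml, final compound 0.031–64 μg/ml, 18–24 h at 37 °C. MIC is the lowest concentration giving complete growth inhibition by background-corrected OD600 versus compound-free wells; duplicate or triplicate wells, replicated at least twice.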

P. aeruginosa (PA01) = experiment: In vitro susceptibility, broth microdilution (MIC); assay type: cell-based; settings: Pseudomonas aeruginosa, read-out: Antimicrobial activity (MIC) P. aeruginosa
Method in brief: as §1

[2] = test system: S. typhimurium (ATCC BAA-185); experiment: In vitro susceptibility, broth microdilution (MIC); assay type: cell-based; settings: Salmonella enterica, read-out: Antimicrobial activity (MIC) S. typhimurium
Method in brief: as §1

T1 sequence (Q6GG09 whole entry): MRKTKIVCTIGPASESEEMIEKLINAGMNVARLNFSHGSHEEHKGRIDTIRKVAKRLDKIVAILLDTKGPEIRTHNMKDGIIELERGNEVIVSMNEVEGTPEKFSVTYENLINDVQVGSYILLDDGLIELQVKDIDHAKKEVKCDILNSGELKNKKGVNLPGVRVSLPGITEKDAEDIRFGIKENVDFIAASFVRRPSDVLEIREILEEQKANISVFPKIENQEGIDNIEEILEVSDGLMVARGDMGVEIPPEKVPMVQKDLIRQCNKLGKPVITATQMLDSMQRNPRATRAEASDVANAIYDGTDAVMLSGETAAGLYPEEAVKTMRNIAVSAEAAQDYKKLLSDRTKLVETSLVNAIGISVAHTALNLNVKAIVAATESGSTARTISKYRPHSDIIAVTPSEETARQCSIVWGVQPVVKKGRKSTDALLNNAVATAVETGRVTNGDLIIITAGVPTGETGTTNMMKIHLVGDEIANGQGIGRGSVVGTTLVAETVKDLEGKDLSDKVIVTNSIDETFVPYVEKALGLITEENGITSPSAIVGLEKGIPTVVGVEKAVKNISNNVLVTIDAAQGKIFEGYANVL

| Structure (SMILES) | IC50 (MRSA Pyk) | MIC [1] | MIC (P. aeruginosa (PA01)) | MIC [2] |
| --- | --- | --- | --- | --- |
| C[N+](C)(C)CCON=C(c1c(-c2cc3cc(Cl)ccc3[nH]2)[nH]c2cc(Br)ccc12)C(F)(F)F (racemic) [Compound 221, 2-(((1-(6-Bromo-5′-chloro-1H,1′H-[2,2′-biindol]-3-yl)-2,2,2-trifluoroethylidene)amino)oxy)-N,N,N-trimethylethan-1-aminium Iodide] | < 100 nM | 32 µg/mL | 32 µg/mL | 64 µg/mL |
| CN(C)CCOC(=O)c1c(/C=C/c2ccc(Cl)cc2)[nH]c2cc(Br)ccc12 [Compound 60, (E)-2-(Dimethylamino)ethyl 6-bromo-2-(4-chlorostyryl)-1H-indole-3-carboxylate] | < 100 nM | > 64 µg/mL | – | – |
| NCCOc1cc2[nH]c(-c3cc4ccc(Br)cc4[nH]3)cc2cc1Cl [Compound 201, 2-((6′-Bromo-5-chloro-1H,1′H-[2,2′-biindol]-6-yl)oxy)ethan-1-amine] | < 100 nM | 16 µg/mL (≈ 39.5 µM) | 16 µg/mL (≈ 39.5 µM) | 16 µg/mL (≈ 39.5 µM) |
| NCCNC(=O)c1c(-c2cc3cc(Cl)ccc3[nH]2)[nH]c2cc(Br)ccc12 [Compound 206, N-(2-Aminoethyl)-6-bromo-5′-chloro-1H,1′H-[2,2′-biindole]-3-carboxamide] | < 100 nM | 16 µg/mL (≈ 37.1 µM) | 32 µg/mL (≈ 74.1 µM) | 64 µg/mL (≈ 148 µM) |
